Measurements from article PMC7996082, “The translocator protein ligands as mitochondrial functional modulators for the potential anti-Alzheimer agents” (Journal of Enzyme Inhibition and Medicinal Chemistry, 2021).
Like-named read-outs stand apart in the source and are kept apart here.

Legend:
[1] = biological target: TSPO; conditions: cited from earlier work
[2] = system: HT-22 (mouse hippocampal cells) cells treated with Aβ; assay: JC-1 assay: recovery of mitochondrial membrane potential (ΔΨm) after Aβ; type: cell-based; conditions: 5 μM compound, 5 μM Aβ, HT22 cells; 0% = Aβ-induced damaged condition, 100% = normal condition
Description: Thirty thousand HT-22 cells per well were seeded into a clear 96-well plate (FALCON) at 200 µL per well one day prior to assay. 750 mM of JC-1 (Stratagene) in DMSO stock solution was dissolved into phenol red-free Opti-MEM (GIBCO) medium to make final concentration of 7.5 mM JC-1 per well. Medium was removed from the plate, and 100 µL per well of JC-1 was added. The sample plates were incubated for 1 h and 15 min at 37 °C and washed twice with 100 µL per well of PBS. Subsequently, cells were treated with a 25 µL solution of each compound at 10 µM in Opti-MEM and incubated at 37 °C for 10 min followed by addition of a 25 µL of Aβ (American peptide, 1-42) solution at 10 µM. Fluorescence was measured at every one hour for three hours at ex/em 530 nm/580 nm (“red”) and ex/em 485 nm/530 nm (“green”) by using the Flexstation® 3 (Molecular Devices, USA) reader. The ratio of green to red fluorescence was calculated and normalised by taking the percent changes using vehicle control as 100%.
The selected 56 compounds were purchased and tested by in vitro cell-based assays. Four different cell-based assays (JC-1, MTT, ATP production, and cellular ROS assays) were carried out sequentially. First, the JC-1 assay was performed to screen all 56 compounds, VH001–VH056 (Supplementary Table S1). Since mitochondrial membrane depolarisation is one of the distinct signs of mPTP opening, the mitochondrial uptake of a fluorescent JC-1 dye (5,59,6,69-tetrachloro-1,19,3,39-tetraethylbenzimidazolocarbocyanine iodide) was measured to evaluate the effects of each compound on the mitochondrial membrane potential (ΔΨm). HT22 cells, a mouse hippocampal cell line, were treated with 5 µM of Aβ, incubated with each compound at the same concentration of 5 µM, and subsequently treated with JC-1. On the basis of changes in the red/green fluorescence intensity ratio between the cells treated with Aβ and control, the percent recovery of ΔΨm for each compound was calculated and normalised to the ΔΨm of healthy cells as 100%.
Compd Structure ∆Ψm at 5 Compd Structure ∆Ψm at 5 […]
a After the treatment of each compound (5 μM) and Aβ (5 μM) in HT22 cell, the increase of fluorescence ratio (green/red) was measured and normalized by taking the change of the ratio between 0% (Aβ-induced damaged condition) and 100% (normal condition in the absence of Aβ).

[3] = MTT assay: HT22 cell viability with compound alone; type: cell-based, mouse; conditions: mouse, HT22 cells; HT22 cell viability after 24 h of treatment with 5 μM compound, no Aβ
Description: (§1) To a clear 96-well plate (FALCON), the cultured HT-22 cells were seeded in a number of 5,000 per well 24 h prior to the assay. A solution of each test compound (5 µM, 25 µL) was added to each well. After 24 h of incubation at 37 °C, the cells were treated with a 10 µL of MTT solution (3–(4,5-dimethylthiazol-2-yl)-2,5-diphenyltetrazolium bromide, Sigma-Aldrich), incubated for 2 h at 37 °C, and were treated with 135 µL of MTT solubilising solution (10% Triton-X 100 in isopropanol with 0.1 M HCl) for 2 h at 37 °C. The % values of cell viability were determined by using the optical density (OD) values at 560 nm, and normalised by taking the vehicle control (5 µM of DMSO) as […].

[4] = system: HT22 cells treated with Aβ; assay: Cellular ROS assay (DCFDA): inhibition of Aβ-induced ROS generation; type: cell-based, mouse; conditions: for inhibition at 5 µM: Mus musculus, HT-22, 5 μM compound; for ROS Inhibition (%): 5 μM compound
Description: Among 56 compounds, 23 compounds were selected and further tested for the luciferase-based ATP assay. […] Thus, we chose these two compounds and further evaluated their biological activity by measuring cell viability and reactive oxygen species (ROS) production. The effects on cell viability of each compound under Aβ-induced cytotoxicity were determined by measuring the metabolic activity of NAD(P)H-dependent cellular oxidoreductases using the 3–(4,5-dimethylthiazol-2-yl)-2,5-diphenyl-tetrazolium bromide (MTT) dye. To measure cellular ROS levels, we used a fluorescence indicator, 2′,7′-dichlorofluorescein diacetate (DCFDA), and calculated the percent inhibition of ROS generation by applying the same method used for MTT assays. Compound 7 inhibited Aβ-induced ROS generation (97% at 5 µM) almost to the level of the untreated control (Table 1). […] On the basis of the in vitro activity, we selected compound 7 as the best hit from the initial screening library.

[5] = system: acute AD model mice (Aβ1-42 ICV injected ICR mice); assay: Y-maze spontaneous alternation test in acute AD model mice; type: in vivo, mouse; conditions: 30 mg/kg daily, 6 days, i.p.
Description: (§2) The acute AD mice model was prepared by administration of Aβ1-42 solution (10% DMSO/90% PBS) to male ICR mice (6 weeks old, 30 − 33 g) via intracerebroventricular (ICV) injection (Aβ1-42 dose: 500 pmol/mouse) as described previously. The wild type mice (B6C3F1) and double APP/PS1 transgenic mice (Tg AD mice model; APPswe/PSEN1dE9) were purchased from Jackson Laboratory (Bar Harbour, ME, USA). The Tg AD model mice were 11 months old at the beginning of the behaviour test, and were housed for 1 month in a room under controlled temperature and fed ad libitum. The behaviour tests were conducted during daytime in air-controlled and soundproof experiment room. The animal experiments were abided by the guidelines of the Institutional Animal Care and Use Committee of Korea Institute of Science and Technology.
To the mice of the acute AD model (n = 7 per group), each test compound (test compound in 20% cyclodextrin, 30 mg/kg) was […] injected daily for 6 days. The Y-maze spontaneous alternation test was performed 1 day after the administration of each test compound. The Y maze was made of three equally spaced black plastic arms (40 L × 10 W × 12 H cm) positioned at an equal angle. Each mouse was placed at the end of one arm and allowed to move freely through the maze for 8 min, and the sequence of arm entries was recorded. The arm entry of the mouse was counted when the all four limbs were within an arm. A set of entries into all three arms is considered as a spontaneous alternation. The spontaneous alternation (%) was calculated by the following equation: Spontaneous alternation (%)=100x[number of alternations/(total number of arm entries – 2)]
We evaluated in vivo activity of 7 and 14 in an acute AD mouse model. The acute AD model mice were generated by the administration of Aβ1-42 peptide (500 pmol) according to the previously reported method, and each compound (30 mg/kg daily) was administered intraperitoneally for 6 days. Piracetam (30 mg/kg daily) was also administered in parallel for comparison. The Y-maze spontaneous alternation tests were performed to measure the recovery of learning and memory deficit in acute AD model mice[38]^,[39]. […] We believe that the treatment of 7 was beneficial for ameliorating Aβ-induced cognitive impairments.

[6] = system: transgenic AD model mice (APPswe/PSEN1dE9); assay: Y-maze spontaneous alternation test in transgenic AD model mice; type: in vivo, mouse; conditions: Tg APPswe/PSEN1dE9 mice, 30 mg/kg daily, 1 month, PO
[7] = system: transgenic AD model mice (APPswe/PSEN1dE9); assay: Contextual fear conditioning test in transgenic AD model mice; type: in vivo, mouse; conditions: Tg AD model mice, 30 mg/kg daily, 1 month, PO; 30 mg/kg
Description: as §2
To the Tg mice of the AD model (n = 7 per group), each test compound (30 mg/kg) was orally administrated daily for 1 month. […] Freezing response was measured by the fear conditioning system without application of CS or US.
In addition, we assessed recovery effects of compound 7 by performing contextual fear conditioning tests.[40] Healthy mice show higher number of total freezing, which is an index of fear learning and memory of rodents; therefore, the number of total freezing responses under fear-relevant stimuli was measured with the compound-treated Tg AD model mice. […]

[8] = system: HT22 cells; assay: MTT assay: HT22 cell viability with compound alone; type: cell-based, mouse; conditions: HT22 cell viability after 24 h of treatment with 5 μM compound, no Aβ
Description: as §1

Compound: CCCCN(CCCC)C(=O)Cc1c(-c2ccc(Cl)cc2)nc2c(Cl)cc(Cl)cn12 [Compound 2, N,N-dibutyl-2–(6,8-dichloro-2–(4-chloro-phenyl)imidazo[1,2-a]pyridin-3-yl)acetamide]
- Ki ([1]; TSPO binding affinity ref 30): 2.68 nM

Compound: CCOc1ccc(-c2cc(C(=O)NCc3cccc(OC)c3)c3ccccc3n2)cc1 [VH025]
- Recovery of ΔΨm (%) [2]: 12%

Compound: NC(=O)CN1CCCC1=O [Piracetam, piracetam, reference compound]
- viability at 24 h, 5 µM [3]: 132%
- inhibition at 5 µM [4]: 129%
- Recovery of Y-maze spontaneous alternations [5]: 20%
- Recovery of Y-maze spontaneous alternations [6]: 33%
- Contextual fear conditioning: percent recovery of freezing [7]: −2%

Compound: CCCCCCN(CCCCCC)C(=O)Cc1c(-c2ccc(F)cc2)[nH]c2ccccc12 [Compound 1, 2–(2-(4-fluorophenyl)-1H-indol-3-yl)-N,N-dihexylacetamide]
- Ki ([1]; TSPO binding affinity ref 29): 3.25 nM

Compound: COc1ccc(CNC(=O)C(c2cccnc2)N(C(=O)c2csnn2)c2ccc(C(C)(C)C)cc2)cc1 (centres unmarked) [Compound 8]
- viability at 24 h, 5 µM [3]: 34%
- inhibition at 5 µM [4]: -10%

Compound: CCOc1ccc(-c2cc(C(=O)NCCCN(CC)c3ccccc3)c3ccccc3n2)cc1 [VH024]
- Recovery of ΔΨm (%) [2]: 74%

Compound: CCOc1ccc(-n2c(SCC(C)C)nc3sc4c(c3c2=O)CCN(C(C)=O)C4)cc1 [Compound 11]
- ROS Inhibition (%) [4]: −234%

Compound: COc1ccc(OC)c(CN(C(C)=O)c2cc(F)ccc2Oc2ccccc2)c1 [Compound 4, N-(2,5-dimethoxybenzyl)-N-(5-fluoro-2-phenoxyphenyl)acetamide]
- IC50 ([1]; TSPO binding affinity ref 31): 1.6 nM

Compound: CCOc1ccc(-c2cc(C(=O)NCCCN(CC)CC)c3ccccc3n2)cc1 [VH022]
- Recovery of ΔΨm (%) [2]: 36%

Compound: CCc1ccc(-c2cc(C)no2)cc1S(=O)(=O)Nc1cc(OC)cc(OC)c1 [VH021]
- Recovery of ΔΨm (%) [2]: 42%

Compound: CCN1CCCC1CNC(=O)c1cc(Nc2ccc(C)c(C)c2)nc2ccccc12 (centres unmarked) [VH023]
- Recovery of ΔΨm (%) [2]: 62%

Compound: CCN(CCNC(=O)c1cc(-c2cccnc2)nc2ccccc12)c1ccccc1 [VH026]
- Recovery of ΔΨm (%) [2]: 49%

Compound: CN1C(=O)CN=C(c2ccc(Cl)cc2)c2cc(Cl)ccc21 [Compound 5, 7-chloro-5–(4-chlorophenyl)-1-methyl-1,3-dihydro-2H-benzo[e][1,4]diazepin-2-one]
- Ki ([1]; TSPO binding affinity ref 32): 1.02 nM

Compound: CCc1ccc(Nc2cc(C(=O)NCCc3cccc(C)c3)c3ccccc3n2)cc1 [VH029]
- Recovery of ΔΨm (%) [2]: 18%

Compound: CC(=O)N(Cc1ccccc1OC(C)C)c1ccc(Cl)cc1Oc1ccccc1 [Compound 3, N-(4-chloro-2-phenoxyphenyl)-N-(2-isopropoxybenzyl)acetamide]
- IC50 ([1]; TSPO binding affinity ref 31): 0.92 nM

Compound: CCOc1ccc(-n2c(SC)nc3sc4c(c3c2=O)CCN(C(C)=O)C4)cc1 [Compound 10]
- MTT Viability (%) [8]: 87%
- ROS Inhibition (%) [4]: −177%

Compound: CCOc1ccc(-c2cc(C(=O)NCC(C)CN(CC)CC)c3ccccc3n2)cc1 (centres unmarked) [VH030]
- Recovery of ΔΨm (%) [2]: 60%

Compound: COc1ccc(CNC(=O)c2cc(OCc3ccc(C)cc3)nc3ccccc23)c(OC)c1 [VH028]
- Recovery of ΔΨm (%) [2]: 51%

Compound: CC(C)CN(CCCNC(=O)c1cc(Nc2ccccc2)nc2ccccc12)CC(C)C [VH027]
- Recovery of ΔΨm (%) [2]: 25%
